The text below walks through data of ChEMBL document CHEMBL6083270, “Synthesis and biological evaluation of 4,7,9-trisubstituted benzoxazepines as antileishmanial agents” (Bioorg Med Chem Lett, 2024).

For one data set, the system named is Leishmania mexicana. As to the kind of experiment: Antileishmanial activity against Leishmania mexicana intracellular amastigotes. In kind it is functional, organism-based.
Data set [1] in a line: Cytotoxicity against mouse J774.A1 cells assessed as reduction in cell viability. Type of data set: toxicity, cell-based.
The nature of data set [2]: Selectivity index, ratio of EC50 for mouse J774.A1 cells to EC50 for Leishmania mexicana intracellular amastigotes. Type of data set: toxicity, cell-based. Particulars: read-out: Ratio EC50.

Molecules are shown by their SMILES. pEC50: −log10 of the molar value.

As to `Cc1noc(C)c1CC(=O)N1CCOc2c(cc(-c3cccnc3)cc2OCC2CCCN(C)C2)C1` (configuration not stated), the pEC50 with Leishmania mexicana is 4.54; in data set [1] it was < 4.30.
Molecule `CN1CCCC(COc2cc(-c3cccc(Cl)c3)cc3c2OCCNC3)C1` (configuration not stated) had a pEC50 in the data set with Leishmania mexicana of 5.66.
For the molecule `Cc1noc(C)c1CC(=O)N1CCOc2c(cc(-c3cccc(Cl)c3)cc2OCC2CCCN(C)C2)C1` (configuration not stated), the figures for the pEC50 (in the data set with Leishmania mexicana; in data set [1]) were 6.05 and 5.49, respectively. Moreover, the selectivity ratio in data set [2] is 3.6.
Molecule `Cc1ccc(-c2cc3c(c(OCC4CCCN(C)C4)c2)OCCN(Cc2cn(C)nc2C)C3)s1` (configuration not stated) had a negative logarithm of the EC50 (pEC50) in the data set on Leishmania mexicana of 5.24.
On to `Cc1noc(C)c1CC(=O)N1CCOc2c(O)cc(-c3cccc(Cl)c3)cc2C1`, for which the pEC50 in the data set on Leishmania mexicana is 4.81.
In the data set on Leishmania mexicana, `Cc1ccc(-c2cc(O)c3c(c2)CN(C(=O)Cc2c(C)noc2C)CCO3)s1` had a pEC50 of 4.64.
Same read-out and setting: under `Cc1ccc(-c2cc3c(c(OCC4CCCN(C)C4)c2)OCCN(C(=O)C2CC2)C3)s1` (configuration not stated) stands 4.99.
The molecule `Cc1ccc(-c2cc3c(c(OCC4CCCN(C)C4)c2)OCCN(C(=O)Cc2ccc(F)cc2)C3)s1` (configuration not stated) had a negative logarithm of the EC50 (pEC50) in the data set with Leishmania mexicana of 5.31.
Consider `Cc1noc(C)c1CC(=O)N1CCOc2c(cc(-c3ccc(Cl)cc3)cc2OCC2CCCN(C)C2)C1` (configuration not stated), for which the negative-log EC50 (pEC50) in the data set on Leishmania mexicana was 5.80; in data set [1], 5.26. Besides, the selectivity ratio in data set [2] stood at 3.4.
Molecule `Cc1noc(C)c1CC(=O)N1CCOc2c(O)cc(-c3cccc(F)c3)cc2C1` gave a negative logarithm of the EC50 (pEC50) in the data set with Leishmania mexicana of 4.53.
Turning to `Cc1noc(C)c1CC(=O)N1CCOc2c(cc(CC3CC3)cc2OCC2CCCN(C)C2)C1` (configuration not stated), in data set [1], the pEC50 was < 4.30.
Turning to `Cc1ccc(-c2cc3c(c(OCC4CCCN(C)C4)c2)OCCNC3)s1` (configuration not stated), the pEC50 in the data set on Leishmania mexicana is 5.44.
In the case of `Cc1noc(C)c1CC(=O)N1CCOc2c(cc(Br)cc2OCC2CCCN(C)C2)C1` (configuration not stated), the pEC50 in data set [1] is < 4.30.
In turn, `CCCCCCCCCCCCCCCCOP(=O)([O-])OCC[N+](C)(C)C` [MILTEFOSINE] showed a pEC50 with Leishmania mexicana of 5.49.
Molecule `Cc1ccc(-c2cc3c(c(OCC4CCCN(C)C4)c2)OCCN(C(=O)C2CCC2)C3)s1` (configuration not stated) gave a pEC50 in the data set on Leishmania mexicana of 5.32.
The same measure, in the same setting: as for `CN1CCCC(COc2cc(-c3cccc(Cl)c3)cc3c2OCCN(C(=O)c2cccs2)C3)C1` (configuration not stated), the figure is 5.34; as for `COc1ccc(C(=O)N2CCOc3c(cc(-c4ccc(C)s4)cc3OCC3CCCN(C)C3)C2)c(OC)c1` (configuration not stated), 5.41; as for `CN1CCCC(COc2cc(-c3cccc(Cl)c3)cc3c2OCCN(C(=O)Cc2ccsc2)C3)C1` (configuration not stated), 4.95.
For the molecule `Cc1noc(C)c1CC(=O)N1CCOc2c(cc(-c3ccnn3C)cc2OCC2CCCN(C)C2)C1` (configuration not stated), the pEC50 in the data set with Leishmania mexicana is 4.60; in data set [1], < 4.30.
Take `Cc1noc(C)c1CC(=O)N1CCOc2c(cc(-c3ccn(C)n3)cc2OCC2CCCN(C)C2)C1` (configuration not stated): the figures for the negative logarithm of the EC50 (pEC50) (in the data set on Leishmania mexicana; in data set [1]) were 4.78 and < 4.30, respectively.
As for `COc1cccc(C(=O)N2CCOc3c(cc(-c4ccc(C)s4)cc3OCC3CCCN(C)C3)C2)c1` (configuration not stated), the negative logarithm of the EC50 (pEC50) with Leishmania mexicana is 5.36.
Consider `CC1=NN(C)CC1c1cc2c(c(OCC3CCCN(C)C3)c1)OCCN(C(=O)Cc1c(C)noc1C)C2` (configuration not stated), for which the pEC50 with Leishmania mexicana was 4.43; in data set [1], < 4.30.
Consider `Cc1cccc(CN2CCOc3c(cc(-c4ccc(C)s4)cc3OCC3CCCN(C)C3)C2)n1` (configuration not stated), for which the pEC50 in the data set on Leishmania mexicana was 5.28.
The molecule `Cc1ccc(-c2cc3c(c(OCC4CCCN(C)C4)c2)OCCN(C(=O)c2cccc(Cn4cccn4)c2)C3)s1` (configuration not stated) had a pEC50 in the data set on Leishmania mexicana of 5.34.
With `Cc1noc(C)c1CC(=O)N1CCOc2c(cc(-c3ccccc3Cl)cc2OCC2CCCN(C)C2)C1` (configuration not stated), the pEC50 in the data set with Leishmania mexicana is 5.54; in data set [1], 4.83. The selectivity ratio in data set [2] worked out at 5.1.
For `Cc1ccc(-c2cc3c(c(OCC4CCCN(C)C4)c2)OCCN(C(=O)Cc2c(C)noc2C)C3)s1` (configuration not stated), the pEC50 with Leishmania mexicana is 5.64; in data set [1] it was 5.33. Also, the selectivity ratio in data set [2] is 2.
Turning to `Cc1noc(C)c1CC(=O)N1CCOc2c(cc(-c3cccc(F)c3)cc2OCC2CCCN(C)C2)C1` (configuration not stated), the figures for the pEC50 (in the data set with Leishmania mexicana; in data set [1]) were 5.59 and 4.94, respectively. In addition, the selectivity ratio in data set [2] was determined as 4.4.
For `COc1ccccc1C(=O)N1CCOc2c(cc(-c3ccc(C)s3)cc2OCC2CCCN(C)C2)C1` (configuration not stated), the pEC50 with Leishmania mexicana was 5.21.

By pEC50 is commonly meant the negative decadic logarithm of the EC50, by convention in mol/L.
